Measured values taken from patent US20220356186A1, “PERK INHIBITING PYRROLOPYRIMIDINE COMPOUNDS” (HiberCell, Inc., priority 2019, published 2022).
Where two headings read alike, the source gives them in different places.

Legend:
[1] = test system: GFP-eIF2α in HEK293 cells; experiment: PERK cellular assay, TR-FRET in HEK293-EGFP-eIF2a cells after tunicamycin-induced ER stress; assay type: cell-based; conditions: HEK293-EGFP-eIF2a cells, tunicamycin 2 hours, read-out: Cellular eIF2α IC50
Description: Stable cell lines were created in HEK293 cells using lentiviral particles harboring an expression vector for GFP-eIF2α. Cells were selected using puromycin and enriched using fluorescence activated cell sorting against GFP. HEK293-EGFP-eIF2a cells were plated at 5000 cells/well in 384-well assay plates and incubated overnight at 37° C., 5% CO2. Inhibitor compounds were added to the wells by Echo acoustic dispensing and incubated for 30 minutes at 37° C., 5% CO2 prior to induction of ER stress by addition of tunicamycin to […] for 2 hours. Cells were lysed and TR-FRET was measured in an EnVision plate reader (PerkinElmer). FRET ratio data was normalized to signal from lysates treated with DMSO vehicle control and plotted as percent inhibition against 10-point; 3-fold dilution series of inhibitors. IC50 values were calculated using 4-parameter logistical fitting in XLFit.

[2] = biological target: T1, EIF2AK3 (PERK) catalytic domain (amino acids 536-1116) (Homo sapiens, UniProt Q9NZJ5); experiment: PERK in vitro activity assay (isolated), TR-FRET kinase assay; assay type: biochemical; conditions: isolated PERK enzyme, 1.5 μM ATP; read-out: Biochemical IC50
T1 construct: EIF2AK3 (PERK) catalytic domain (amino acids 536-1116)
T1 sequence (Q9NZJ5 536-1116): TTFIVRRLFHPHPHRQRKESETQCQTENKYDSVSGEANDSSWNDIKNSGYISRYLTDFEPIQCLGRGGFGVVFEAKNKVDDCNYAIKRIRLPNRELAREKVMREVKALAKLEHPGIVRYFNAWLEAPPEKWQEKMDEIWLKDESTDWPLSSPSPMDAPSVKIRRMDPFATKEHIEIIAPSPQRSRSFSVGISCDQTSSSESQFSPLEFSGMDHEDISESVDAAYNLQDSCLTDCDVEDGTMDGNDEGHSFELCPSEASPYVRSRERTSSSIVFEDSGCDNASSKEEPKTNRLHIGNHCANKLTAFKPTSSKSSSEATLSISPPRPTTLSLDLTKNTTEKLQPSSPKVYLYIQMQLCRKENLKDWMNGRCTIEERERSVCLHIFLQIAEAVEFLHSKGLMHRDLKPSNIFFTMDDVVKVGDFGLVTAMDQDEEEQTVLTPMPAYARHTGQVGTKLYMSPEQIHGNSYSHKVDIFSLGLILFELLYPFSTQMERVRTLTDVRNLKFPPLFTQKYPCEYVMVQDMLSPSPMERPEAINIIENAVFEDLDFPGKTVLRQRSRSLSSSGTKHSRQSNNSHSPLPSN
From the text: PERK In Vitro Activity Assay (Isolated):
In vitro Inhibition of PERK Enzyme Activity (isolated) Recombinant human EIF2AK2 (PKR) catalytic domain (amino acids 252-551), EIF2AK3 (PERK) catalytic domain (amino acids 536-1116), GFP-eIF2a substrate, and Terbium-labelled phospho-eIF2a antibody is obtained (Invitrogen, Carlsbad, Calif.).
Express and purify HIS-SUMO-GCN2 catalytic domain (amino acids 584-1019) from E. coli. Perform TR-FRET kinase assays in the absence or presence of inhibitors in a reaction buffer consisting of 50 mM HEPES, pH 7.5, 10 mM MgCb, 1.0 mM EGTA, and 0.01% Brij-35, and 100-200 nM GFP-eIF2a substrate. […] Add test compound, initiate the reaction by addition of enzyme, and incubate at room temperature for 45 minutes. Stop the reaction by addition of EDTA to a final concentration of 10 mM, add Terbium-labelled phospho-eIF2a antibody at a final concentration of 2 nM, and incubate for 90 minutes. Monitor the resulting fluorescence in an EnVison® Multilabel reader (PerkinElmer, Waltham, Mass.). Determine TR-FRET ratios and the resulting IC50 values using a 4-parameter nonlinear logistic equation as shown: Y=(A+((B−A)/(1+((C/x)[…])))) where, Y=% specific inhibition, A=Bottom of the curve, B=Top of the curve, C=absolute IC50 (concentration causing 50% inhibition), and D=hill slope.

Compound	IC50 ([1]; Homo sapiens, HEK293, 2 h)	IC50 [2]	IC50 [1]
Cc1cc(NC(=O)Cc2ccc3ccccc3c2)ccc1-c1cn(C)c2ncnc(N)c12 [Example 152, N-(4-(4-amino-7-methyl-7H-pyrrolo[2,3-d]pyrimidin-5-yl)-3-methylphenyl)-2-(naphthalen-2-yl)acetamide]	51 to 100 nM	1 to 25 nM	–
Cc1nc(N)c2c(-c3ccc(NC(=O)C(O)c4cccc(F)c4)cc3F)cn(C)c2n1 (centres unmarked) [Example 79, N-(4-(4-amino-2,7-dimethyl-7H-pyrrolo[2,3-d]pyrimidin-5-yl)-3-fluorophenyl)-2-(3-fluorophenyl)-2-hydroxyacetamide]	–	51 to 100 nM	501 to 1000 nM
Cc1nc(N)c2c(-c3ccc(NC(=O)C(O)c4cccc(C(F)(F)F)c4)cc3Cl)cn(C)c2n1 (centres unmarked) [Example 102, N-(4-(4-amino-2,7-dimethyl-7H-pyrrolo[2,3-d]pyrimidin-5-yl)-3-chlorophenyl)-2-hydroxy-2-(3-(trifluoromethyl)phenyl)acetamide]	–	101 to 250 nM	101 to 250 nM
Cc1nc(N)c2c(-c3ccc(NC(=O)C(O)c4cccc(F)c4)cc3OC(F)(F)F)cn(C)c2n1 (single isomer, unassigned) [Example 21, N-(4-(4-amino-2,7-dimethyl-7H-pyrrolo[2,3-d]pyrimidin-5-yl)-3-(trifluoromethoxy)phenyl)-2-(3-fluorophenyl)-2-hydroxyacetamide]	–	1 to 25 nM	501 to 1000 nM
Cc1nc(N)c2c(-c3ccc(NC(=O)C(O)c4cc(F)cc(F)c4)cc3C)cn(C)c2n1 (centres unmarked) [Example 53, N-(4-(4-amino-2,7-dimethyl-7H-pyrrolo[2,3-d]pyrimidin-5-yl)-3-methylphenyl)-2-(3,5-difluorophenyl)-2-hydroxyacetamide]	–	26 to 50 nM	251 to 500 nM
Cc1nc(N)c2c(-c3ccc(NC(=O)C(O)c4cccc(F)c4)nc3C)cn(C)c2n1 (centres unmarked) [Example 128, N-(5-(4-amino-2,7-dimethyl-7H-pyrrolo[2,3-d]pyrimidin-5-yl)-6-methylpyridin-2-yl)-2-(3-fluorophenyl)-2-hydroxyacetamide]	–	501 to 1000 nM	> 5000 nM
Cc1cc(NC(=O)Cc2ccc(C(F)(F)F)cc2)ccc1-c1cn(C)c2ncnc(N)c12 [Example 159, N-(4-(4-amino-7-methyl-7H-pyrrolo[2,3-d]pyrimidin-5-yl)-3-methylphenyl)-2-(4-(trifluoromethyl)phenyl)acetamide]	501 to 1000 nM	51 to 100 nM	–
Cn1cc(-c2ccc(NC(=O)C(O)c3cccc(F)c3)cc2F)c2c(N)ncnc21 (single isomer, unassigned) [Example 4, N-(4-(4-amino-7-methyl-7H-pyrrolo[2,3-d]pyrimidin-5-yl)-3-fluorophenyl)-2-(3-fluorophenyl)-2-hydroxyacetamide]	–	1 to 25 nM	1 to 25 nM
COC(C(=O)Nc1ccc(-c2cn(C)c3ncnc(N)c23)c(C)c1)c1ccccc1 (centres unmarked) [Example 8, N-(4-(4-amino-7-methyl-7H-pyrrolo[2,3-d]pyrimidin-5-yl)-3-methylphenyl)-2-methoxy-2-phenylacetamide]	101 to 250 nM	1 to 25 nM	–
Cc1nc(N)c2c(-c3ccc(NC(=O)C(O)c4ccccc4C)cc3F)cn(C)c2n1 (centres unmarked) [Example 71, N-(4-(4-amino-2,7-dimethyl-7H-pyrrolo[2,3-d]pyrimidin-5-yl)-3-fluorophenyl)-2-hydroxy-2-(o-tolyl)acetamide]	–	–	2000 to 3000 nM
Cc1cccc(C(O)C(=O)Nc2ccc(-c3cn(C)c4ncnc(N)c34)c(C)c2)c1 (centres unmarked) [Example 41, N-(4-(4-amino-7-methyl-7H-pyrrolo[2,3-d]pyrimidin-5-yl)-3-methylphenyl)-2-hydroxy-2-(m-tolyl)acetamide]	1 to 25 nM	1 to 25 nM	–
Cc1cccc(C(O)C(=O)Nc2ccc(-c3cn(C)c4nc(C)nc(N)c34)c(Cl)c2)c1 (centres unmarked) [Example 95, N-(4-(4-amino-2,7-dimethyl-7H-pyrrolo[2,3-d]pyrimidin-5-yl)-3-chlorophenyl)-2-hydroxy-2-(m-tolyl)acetamide]	–	51 to 100 nM	251 to 500 nM
Cc1cc(F)cc(C(O)C(=O)Nc2ccc(-c3cn(C)c4nc(C)nc(N)c34)c(F)c2)c1 (centres unmarked) [Example 86, N-(4-(4-amino-2,7-dimethyl-7H-pyrrolo[2,3-d]pyrimidin-5-yl)-3-fluorophenyl)-2-(3-fluoro-5-methylphenyl)-2-hydroxyacetamide]	–	1 to 25 nM	51 to 100 nM
Cc1cccc(CC(=O)Nc2ccc(-c3cn(C)c4ncnc(N)c34)c(C)c2)c1 [Example 143, N-(4-(4-amino-7-methyl-7H-pyrrolo[2,3-d]pyrimidin-5-yl)-3-methylphenyl)-2-(m-tolyl)acetamide]	26 to 50 nM	1 to 25 nM	–
Cc1cc(NC(=O)C(F)(F)c2ccccc2)ccc1-c1cn(C)c2ncnc(N)c12 [Example 28, N-(4-(4-amino-7-methyl-7H-pyrrolo[2,3-d]pyrimidin-5-yl)-3-methylphenyl)-2,2-difluoro-2-phenylacetamide]	501 to 1000 nM	251 to 500 nM	–
Cc1cc(NC(=O)Cc2cccc(F)c2)ccc1-c1cn(C)c2ncnc(N)c12 [Example 161]	–	26 to 50 nM	–
Cn1cc(-c2ccc(NC(=O)C(O)c3cccc(F)c3)cc2OC(F)(F)F)c2c(N)ncnc21 (centres unmarked) [Example 18, N-(4-(4-amino-7-methyl-7H-pyrrolo[2,3-d]pyrimidin-5-yl)-3-(trifluoromethoxy)phenyl)-2-(3-fluorophenyl)-2-hydroxyacetamide]	101 to 250 nM	1 to 25 nM	–
Cc1cc(NC(=O)[C@H](N)c2ccccc2)ccc1-c1cn(C)c2ncnc(N)c12 [Example 26, (R)-2-amino-N-(4-(4-amino-7-methyl-7H-pyrrolo[2,3-d]pyrimidin-5-yl)-3-methylphenyl)-2-phenylacetamide]	501 to 1000 nM	26 to 50 nM	–
Cc1nc(N)c2c(-c3ccc(NC(=O)C(O)c4cccc(Cl)c4)c(F)c3F)cn(C)c2n1 (centres unmarked) [Example 111, N-(4-(4-amino-2,7-dimethyl-7H-pyrrolo[2,3-d]pyrimidin-5-yl)-2,3-difluorophenyl)-2-(3-chlorophenyl)-2-hydroxyacetamide]	–	1 to 25 nM	1 to 25 nM
Cc1nc(N)c2c(-c3ccc(NC(=O)C(O)c4cccc(F)c4)cc3C)cn(C)c2n1 (single isomer, unassigned) [Example 2, N-(4-(4-amino-2,7-dimethyl-7H-pyrrolo[2,3-d]pyrimidin-5-yl)-3-methylphenyl)-2-(3-fluorophenyl)-2-hydroxyacetamide]	–	51 to 100 nM	251 to 500 nM
Cc1nc(N)c2c(-c3ccc(NC(=O)C(O)c4ccccc4C)cc3F)cn(C)c2n1 (centres unmarked) [Example 72, N-(4-(4-amino-2,7-dimethyl-7H-pyrrolo[2,3-d]pyrimidin-5-yl)-3-fluorophenyl)-2-hydroxy-2-(o-tolyl)acetamide]	–	–	26 to 50 nM
Cc1cc(NC(=O)Cc2ccccc2F)ccc1-c1cn(C)c2ncnc(N)c12 [Example 160, N-(4-(4-amino-7-methyl-7H-pyrrolo[2,3-d]pyrimidin-5-yl)-3-methylphenyl)-2-(2-fluorophenyl)acetamide]	–	1 to 25 nM	–
Cc1cc(NC(=O)Cc2cccc(C(F)(F)F)c2)ccc1-c1cn(C)c2ncnc(N)c12 [Example 158, N-(4-(4-amino-7-methyl-7H-pyrrolo[2,3-d]pyrimidin-5-yl)-3-methylphenyl)-2-(3-(trifluoromethyl)phenyl)acetamide]	–	1 to 25 nM	–
